Laboratory results published in paper PMC8158703, “The Glitazone Class of Drugs as Carbonic Anhydrase Inhibitors—A Spin-Off Discovery from Fragment Screening” (Molecules, 2021).
pKd, pKi: −log10 of the molar value. Counter-ions that a name gives are not always drawn.

Legend:
hCA IX = target: T1, hCA IX (Homo sapiens, UniProt Q16790); assay: Stopped flow CO2 hydrase assay; format: biochemical; settings: mean from three assays, errors ±10%
T1 construct: made in house
Method: (§1) In addition to the ubiquitous hCA II, all other catalytically active hCA enzymes (I, IV, VA, VB, VI, VII, IX, XII, XIII and XIV) were assessed, providing a comprehensive profile of CA enzyme inhibition, Table 2. […] Different CAs have different expression profiles and cell locations. […] A comparison between hCA VII and hCA II has identified 7 residue differences (S65A, Q67N, D69E, K91I, A135V, S136Q, S204L) among the 23 residues within the active site cavity.
(§2) An Applied Photophysics stopped-flow instrument was used for assaying the inhibition of the CA catalysed CO2 hydration reaction. […] The uncatalyzed rates were determined in the same manner and subtracted from the total observed rates. […] Inhibitor and enzyme solutions were preincubated together for 15 min at room temperature prior to assay to allow for the formation of the enzyme inhibitor complex. The inhibition constants were obtained by nonlinear least squares methods using PRISM 3 (GraphPad Software Inc, San Diego, CA, USA). […] The catalytic activity (in the absence of inhibitors) of the different enzymes was calculated from Lineweaver–Burk plots and represent the mean from at least three different determinations. […] Enzymes used here were recombinant ones, prepared and purified as described earlier.

hCA IV = target: T2, hCA IV (Homo sapiens, UniProt P22748); assay: Stopped flow CO2 hydrase assay; format: biochemical; settings: mean from three assays, errors ±10%
T2 construct: made in house
T2 sequence (P22748 19-312): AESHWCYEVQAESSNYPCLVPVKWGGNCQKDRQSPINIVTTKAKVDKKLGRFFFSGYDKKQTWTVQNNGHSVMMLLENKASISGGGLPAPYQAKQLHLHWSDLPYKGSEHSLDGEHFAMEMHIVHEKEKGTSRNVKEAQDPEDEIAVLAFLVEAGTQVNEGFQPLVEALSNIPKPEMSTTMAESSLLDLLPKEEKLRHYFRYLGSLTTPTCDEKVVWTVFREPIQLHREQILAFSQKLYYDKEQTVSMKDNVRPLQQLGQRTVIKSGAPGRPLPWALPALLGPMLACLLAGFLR
Method: as §1, §2

hCA XII = target: T3, hCA XII (Homo sapiens, UniProt O43570); assay: Stopped flow CO2 hydrase assay; format: biochemical; settings: mean from three assays, errors ±10%
T3 construct: made in house
T3 sequence (O43570 25-354): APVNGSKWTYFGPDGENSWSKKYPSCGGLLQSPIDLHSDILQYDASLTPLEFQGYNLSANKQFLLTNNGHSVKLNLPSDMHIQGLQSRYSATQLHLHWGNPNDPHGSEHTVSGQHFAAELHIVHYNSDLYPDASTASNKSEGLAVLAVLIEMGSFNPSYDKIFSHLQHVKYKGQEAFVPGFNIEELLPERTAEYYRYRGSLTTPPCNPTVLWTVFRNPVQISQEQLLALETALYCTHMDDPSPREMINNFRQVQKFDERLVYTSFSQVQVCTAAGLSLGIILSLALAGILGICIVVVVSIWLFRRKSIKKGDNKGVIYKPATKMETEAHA
Method: as §1, §2

hCA II = target: T4, hCA II (Homo sapiens, UniProt P00918); assay: Stopped flow CO2 hydrase assay; format: biochemical; settings: mean from three assays, errors ±10%
T4 construct: made in house
Method: as §1, §2

hCA I = target: T5, hCA I (Homo sapiens, UniProt P00915); assay: Stopped flow CO2 hydrase assay; format: biochemical; settings: mean from three assays, errors ±10%
T5 construct: made in house
T5 sequence (P00915 whole entry): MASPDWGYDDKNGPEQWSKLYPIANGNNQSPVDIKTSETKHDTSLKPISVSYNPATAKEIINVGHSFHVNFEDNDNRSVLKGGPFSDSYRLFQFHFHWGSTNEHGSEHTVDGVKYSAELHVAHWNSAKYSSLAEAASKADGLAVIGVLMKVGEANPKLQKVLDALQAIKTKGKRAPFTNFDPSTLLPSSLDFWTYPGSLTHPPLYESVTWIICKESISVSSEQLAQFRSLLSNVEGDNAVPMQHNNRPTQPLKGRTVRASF
Method: as §1, §2

hCA XIII = target: T6, hCA XIII (Homo sapiens, UniProt Q8N1Q1); assay: Stopped flow CO2 hydrase assay; format: biochemical; settings: mean from three assays, errors ±10%
T6 construct: made in house
T6 sequence (Q8N1Q1 whole entry): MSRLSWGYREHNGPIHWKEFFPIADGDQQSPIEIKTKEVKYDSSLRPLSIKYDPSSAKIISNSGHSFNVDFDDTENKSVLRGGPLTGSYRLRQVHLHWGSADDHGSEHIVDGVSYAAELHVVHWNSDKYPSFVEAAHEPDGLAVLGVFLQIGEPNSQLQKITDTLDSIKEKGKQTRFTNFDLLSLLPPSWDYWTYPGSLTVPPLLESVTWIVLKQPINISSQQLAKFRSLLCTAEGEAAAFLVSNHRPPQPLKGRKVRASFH
Method: (§3) CA enzyme inhibition data was determined by measuring the CA-catalysed hydration of CO2 in the presence of 11–13. In addition to the ubiquitous hCA II, all other catalytically active hCA enzymes (I, IV, VA, VB, VI, VII, IX, XII, XIII and XIV) were assessed, providing a comprehensive profile of CA enzyme inhibition, Table 2. […]. Different CAs have different expression profiles and cell locations. […] A comparison between hCA VII and hCA II has identified 7 residue differences (S65A, Q67N, D69E, K91I, A135V, S136Q, S204L) among the 23 residues within the active site cavity. […] Here, we propose that this further extends to the minimal differences in observed active site compound binding strength between these isozymes. […]. Furthermore, they are considered a validated target for antiobesity drug development, in which they have been proposed to have an involvement in insulin secretion, however this mechanism is not yet fully understood. […]. The appreciable inhibition of the glitazones for the different CA isozymes highlights the potential for CA-mediated off-target effects of these drugs when used clinically, and given the reported polypharmacology observed for these compounds, this may provide an avenue for further understanding of their mechanism of action.
(§4) An Applied Photophysics stopped-flow instrument was used for assaying the inhibition of the CA catalysed CO2 hydration reaction. Phenol red (0.2 mM) was used as indicator, monitored at the absorbance maximum of 557 nm. Reactions were carried out in a HEPES (10 mM, pH 7.4) buffer and NaClO4 (10 mM), for maintaining the ionic strength constant, the ClO4^- anion is not inhibitory against most CA isoforms at 25 °C [62]. […]. Inhibitors were tested in the concentration range of 0.01 nM–100 μM, and at least six traces of the initial 5–10% of the reaction have been used for determining the initial velocity. The uncatalyzed rates were determined in the same manner and subtracted from the total observed rates. Stock solutions of inhibitor (1 mM) were prepared in distilled, deionized water with 10–20% (v/v) DMSO (which is not inhibitory at these concentrations), and dilutions were performed thereafter with the assay buffer. Inhibitor and enzyme solutions were preincubated together for 15 min at room temperature prior to assay to allow for the formation of the enzyme inhibitor complex. The inhibition constants were obtained by nonlinear least squares methods using PRISM 3 (GraphPad Software Inc, San Diego, CA, USA). […]. The catalytic activity (in the absence of inhibitors) of the different enzymes was calculated from Lineweaver–Burk plots and represent the mean from at least three different determinations. Enzyme concentrations in the assay system were in the range of 3.8–9.5 nM. Enzymes used here were recombinant ones, prepared and purified as described earlier.

hCA VB = target: T7, hCA VB (Homo sapiens, UniProt Q9Y2D0); assay: Stopped flow CO2 hydrase assay; format: biochemical; settings: mean from three assays, errors ±10%
T7 construct: made in house
T7 sequence (Q9Y2D0 34-317): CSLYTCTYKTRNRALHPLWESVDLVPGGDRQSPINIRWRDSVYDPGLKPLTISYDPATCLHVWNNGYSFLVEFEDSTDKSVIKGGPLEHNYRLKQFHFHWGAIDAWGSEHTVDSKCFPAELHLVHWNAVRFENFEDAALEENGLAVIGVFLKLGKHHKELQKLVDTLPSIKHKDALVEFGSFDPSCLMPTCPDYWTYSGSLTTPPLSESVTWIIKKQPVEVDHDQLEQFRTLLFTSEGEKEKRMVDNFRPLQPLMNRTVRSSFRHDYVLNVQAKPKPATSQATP
Method: as §3, §4

hCA VA = target: T8, hCA VA (Homo sapiens, UniProt P35218); assay: Stopped flow CO2 hydrase assay; format: biochemical; settings: mean from three assays, errors ±10%
T8 construct: made in house
T8 sequence (P35218 39-305): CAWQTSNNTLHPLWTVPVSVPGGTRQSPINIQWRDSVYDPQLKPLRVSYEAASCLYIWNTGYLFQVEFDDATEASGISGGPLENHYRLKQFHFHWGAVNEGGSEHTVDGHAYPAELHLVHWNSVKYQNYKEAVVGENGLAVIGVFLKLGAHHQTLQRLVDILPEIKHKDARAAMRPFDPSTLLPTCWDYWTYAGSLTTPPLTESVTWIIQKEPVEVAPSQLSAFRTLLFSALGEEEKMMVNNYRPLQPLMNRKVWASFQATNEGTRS
Method: as §3, §4

hCA VI = target: T9, hCA VI (Homo sapiens, UniProt P23280); assay: Stopped flow CO2 hydrase assay; format: biochemical; settings: mean from three assays, errors ±10%
T9 construct: made in house
T9 sequence (P23280 18-308): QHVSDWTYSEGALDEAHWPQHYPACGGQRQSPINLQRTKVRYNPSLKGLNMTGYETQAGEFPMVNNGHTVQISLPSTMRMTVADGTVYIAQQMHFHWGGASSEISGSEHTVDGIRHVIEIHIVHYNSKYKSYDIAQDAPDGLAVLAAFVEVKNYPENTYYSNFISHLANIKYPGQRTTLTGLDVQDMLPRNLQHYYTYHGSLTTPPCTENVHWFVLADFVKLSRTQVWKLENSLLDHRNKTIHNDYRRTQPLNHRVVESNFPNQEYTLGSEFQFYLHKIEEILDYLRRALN
Method: as §3, §4

hCA XIV = target: T10, hCA XIV (Homo sapiens, UniProt Q9ULX7); assay: Stopped flow CO2 hydrase assay; format: biochemical; settings: mean from three assays, errors ±10%
T10 construct: made in house
T10 sequence (Q9ULX7 16-337): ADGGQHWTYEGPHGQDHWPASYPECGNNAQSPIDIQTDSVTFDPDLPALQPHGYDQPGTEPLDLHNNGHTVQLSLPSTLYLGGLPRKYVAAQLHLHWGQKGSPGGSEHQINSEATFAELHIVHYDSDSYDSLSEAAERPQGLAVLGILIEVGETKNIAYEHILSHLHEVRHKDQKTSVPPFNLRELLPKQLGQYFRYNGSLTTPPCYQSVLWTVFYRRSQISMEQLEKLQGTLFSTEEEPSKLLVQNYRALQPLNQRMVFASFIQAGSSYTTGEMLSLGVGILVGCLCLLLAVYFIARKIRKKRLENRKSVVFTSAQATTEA
Method: as §3, §4

CA II = CA II hit fragments, SPR; cited from earlier work
hCA VII = target: T11, hCA VII (Homo sapiens, UniProt P43166); assay: Stopped flow CO2 hydrase assay; format: biochemical; settings: mean from three assays, errors ±10%
T11 construct: made in house
T11 sequence (P43166 whole entry): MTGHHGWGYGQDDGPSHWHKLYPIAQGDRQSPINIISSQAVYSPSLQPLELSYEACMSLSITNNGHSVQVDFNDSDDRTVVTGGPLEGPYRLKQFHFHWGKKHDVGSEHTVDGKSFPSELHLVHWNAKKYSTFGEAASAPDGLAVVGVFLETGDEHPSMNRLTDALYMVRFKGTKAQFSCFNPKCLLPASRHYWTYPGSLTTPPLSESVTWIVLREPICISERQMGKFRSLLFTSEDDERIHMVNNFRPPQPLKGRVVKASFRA
Method: as §1, §2

Row | SMILES | pKi (hCA IX) | pKi (hCA IV) | pKi (hCA II) | pKi (hCA I) | pKi (hCA XIII) | pKi (hCA VB) | pKi (hCA VA) | pKi (hCA VI) | pKi (hCA XIV) | pKd (CA II) | also measured
1 | Cc1c(C)c2c(c(C)c1O)CCC(C)(COc1ccc(CC3SC(=O)NC3=O)cc1)O2 (racemic) [Compound 11, (±)-5-[4-[(6-Hydroxy-2,5,7,8-tetramethylchroman-2-yl)methoxy]benzyl]-2,4-thiazolidinedione] | 5.89 | < 4.00 | 5.89 | 4.24 | 4.49 | 4.54 | 4.91 | 4.33 | 4.77 | – | pKi (hCA XII): 6.04
2 | C/C(=C\C(=O)O)c1ccc(Cl)cc1 [Compound 1] | – | – | – | – | – | – | – | – | – | 3.04 | –
3 | O=C(O)c1cccc(Oc2ccccc2)c1 [Compound 2] | – | – | – | – | – | – | – | – | – | 2.89 | –
4 | O=C(O)Cc1cccc(OCc2ccccc2)c1 [Compound 3] | – | – | – | – | – | – | – | – | – | 2.97 | –
5 | Cc1ccnc(S(N)(=O)=O)n1 [Compound 4] | – | – | – | – | – | – | – | – | – | 5.85 | –
6 | Clc1ccccc1OCc1nn[nH]n1 [Compound 5] | – | – | – | – | – | – | – | – | – | 3.20 | –
7 | Clc1ccc(OCc2nn[nH]n2)cc1 [Compound 6] | – | – | – | – | – | – | – | – | – | 3.15 | –
8 | O=C(CSc1nnc[nH]1)c1ccccc1 [Compound 7] | – | – | – | – | – | – | – | – | – | 3.71 | –
9 | CN(CCOc1ccc(CC2SC(=O)NC2=O)cc1)c1ccccn1 (centres unmarked) [Compound 12, 5-[[4-[2-(methyl-2-pyridinylamino)ethoxy]phenyl]methyl]-2,4-thiazolidinedione] | 5.60 | 4.23 | 6.12 | 4.79 | 5.13 | 4.39 | 5.09 | 5.23 | 5.64 | – | pKi (hCA XII): 5.43; pKi (hCA VII): 5.21
10 | CCc1ccc(CCOc2ccc(CC3SC(=O)NC3=O)cc2)nc1 (centres unmarked) [Compound 13, 5-[[4-[2-(5-ethyl-2-pyridinyl)ethoxy]phenyl]methyl]-2,4-thiazolidinedione monohydrochloride] | 6.12 | 4.04 | 5.15 | 4.40 | 4.67 | 4.44 | 5.28 | 4.70 | 5.18 | – | pKi (hCA VII): 5.31
